From publication PMC9655118, “Identification of Novel Cyanopyridones and Pyrido[2,3-d]pyrimidines as Anticancer Agents with Dual VEGFR-2/HER-2 Inhibitory Action: Synthesis, Biological Evaluation and Molecular Docking Studies” (Pharmaceuticals, 2022)
In brackets after ≈: the same amount, converted by molar mass. Several values for one entry are separate records, joined by “and”; a condition that tells them apart may be missing. Identical values can stand only once.

Legend:
[1] = system: VEGFR-2; test: VEGFR-2 expression level in MCF-7 cells (ELISA); type: cell-based, human; settings: untreated control 1573.00 ± 36.9
Description: (§1) In this study, we further explored the impact of cyanopyridones 5a and 5e on VEGFR-2 and HER-2 expression levels in MCF-7 cells (Figure 5). The results disclosed that both 5a and 5e had interesting profiles for reduction of VEGFR-2/HER-2 expression levels compared to the control cells and the reference drug taxol.
(§2) Assessment was performed using a VEGFR-2 (human) SimpleStep ELISA kit (ab213476) and HER-2 (human) SimpleStep ELISA kit (ab100510) (abcam® Cambridge, CB2 0AX, Cambridge, UK) according to manufacturer instructions. In brief, tissue culture supernatant was added to the anti-tag antibody-coated wells, followed by the secondary antibody mix. To remove unbound material, the wells were washed after incubation. […] The final step in the transformation from blue to yellow was the addition of a stop solution, which halted the reaction. The intensity of the signal generated at 450 nm was proportional to the amount of bound analyte.

[2] = biological target: T1, VEGFR-2 (Homo sapiens, UniProt P35968); test: In vitro VEGFR-2 inhibition assay; type: biochemical; settings: mean of three replicates ± S.D.
T1 construct: Effects of compounds 5e and 5a on VEGFR-2 and HER2 (µM) in MCF-7 cells compared to control; endogenous in cells; host or cells: MCF-7
Description: as §2

[3] = system: HepG2 cell line; test: MTT cytotoxicity assay, HepG2; type: cell-based; settings: Homo sapiens, 48 h, mean ± S.D. of three experiments, 50% growth inhibition
Description: (§3) The MTT colorimetric assay is a very sensitive method used to measure the potential cytotoxicity (loss of viable cells) of targeted compounds. […] The drug taxol was used as the reference standard. Cell morphological changes were recorded to determine the cytotoxic effect, and the results are found in Table 1, Figure 3.
(§4) In vitro testing was performed on HepG2 and MCF-7 cell lines to determine the antitumor activity of the newly synthesized chemical compounds. Both cell lines originally came from Egypt’s National Cancer Institute (NCI), housed at Cairo University. At 37 °C with 5% […], the cells were grown in RPMI 1640 containing 10% fetal bovine serum, 50 micrograms per milliliter of streptomycin, and 100 international units per milliliter of penicillin. After trypsinization with 0.05% trypsin-EDTA, cell growth and morphology were evaluated, and passages were made when cells reached 80–90% confluence.
(§5) The MTT assay protocol is described in the Supplementary Materials.
(§6) The MTT assay was used to determine the effects of the newly synthesized compounds on cell viability. In a nutshell, 1 × 10^4 cells/well were seeded in a 96-well plate and allowed to grow for 24 hours. After 24 hours, the original medium was discarded, and a new compounds-containing medium was added. After 48 hours, the media was changed out and 100 μL of MTT (10 μL from (MTT) stock solution (5 mg/ml in PBS) in 100 μL media) was added to each well, and the plates were incubated at 37° C for 4 hours. After adding 100 μL of acidified isopropanol to each well, the formed formazan crystals were dissolved, and the absorbance was read at 570 nm using an ELISA microplate reader (Epoc-2C micro-plate reader, Bio Tek, VT, USA). There were three separate runs of every experiment. Half-maximal inhibitory concentrations (IC50) were determined by fitting sigmoidal dose-response curves.
(§7) GraphPad Prism 8.0 (San Diego, CA, USA) analyzed all results. All results (three independent experiments) were shown as means ± standard deviation. The significance of the differences in the outcomes of all groups was examined using ANOVA and Tukey’s

[4] = system: HER-2; test: HER-2 expression level in MCF-7 cells (ELISA); type: cell-based, human; settings: untreated control 559.00 ± 33.9
Description: as §1, §2

[5] = biological target: T2, HER-2 (Homo sapiens, UniProt P04626); test: In vitro HER-2 inhibition assay; type: biochemical; settings: mean of three replicates ± S.D.
T2 construct: Effects of compounds 5e and 5a on VEGFR-2 and HER2 (µM) in MCF-7 cells compared to control; endogenous in cells; host or cells: MCF-7
Description: as §2

[6] = system: MCF-7 cell line; test: MTT cytotoxicity assay, MCF-7; type: cell-based; settings: Homo sapiens, MCF7, 48 h, mean ± S.D. of three experiments, 50% growth inhibition
Description: as §3, §4, §5, §6, §7

[7] = system: SF-268 CNS cancer; design: method as in PMID 26729087; settings: cited from earlier work
[8] = system: NCI-H460 non-small cell lung cancer; design: method as in PMID 26729087; settings: cited from earlier work
[9] = system: MCF-7 breast cancer; design: method as in PMID 26729087; settings: cited from earlier work
[10] = system: HER-2; design: method as in doi:10.1039/C5MD00602C; settings: reported by Pfizer; cited from earlier work

T2 sequence (P04626 23-1255): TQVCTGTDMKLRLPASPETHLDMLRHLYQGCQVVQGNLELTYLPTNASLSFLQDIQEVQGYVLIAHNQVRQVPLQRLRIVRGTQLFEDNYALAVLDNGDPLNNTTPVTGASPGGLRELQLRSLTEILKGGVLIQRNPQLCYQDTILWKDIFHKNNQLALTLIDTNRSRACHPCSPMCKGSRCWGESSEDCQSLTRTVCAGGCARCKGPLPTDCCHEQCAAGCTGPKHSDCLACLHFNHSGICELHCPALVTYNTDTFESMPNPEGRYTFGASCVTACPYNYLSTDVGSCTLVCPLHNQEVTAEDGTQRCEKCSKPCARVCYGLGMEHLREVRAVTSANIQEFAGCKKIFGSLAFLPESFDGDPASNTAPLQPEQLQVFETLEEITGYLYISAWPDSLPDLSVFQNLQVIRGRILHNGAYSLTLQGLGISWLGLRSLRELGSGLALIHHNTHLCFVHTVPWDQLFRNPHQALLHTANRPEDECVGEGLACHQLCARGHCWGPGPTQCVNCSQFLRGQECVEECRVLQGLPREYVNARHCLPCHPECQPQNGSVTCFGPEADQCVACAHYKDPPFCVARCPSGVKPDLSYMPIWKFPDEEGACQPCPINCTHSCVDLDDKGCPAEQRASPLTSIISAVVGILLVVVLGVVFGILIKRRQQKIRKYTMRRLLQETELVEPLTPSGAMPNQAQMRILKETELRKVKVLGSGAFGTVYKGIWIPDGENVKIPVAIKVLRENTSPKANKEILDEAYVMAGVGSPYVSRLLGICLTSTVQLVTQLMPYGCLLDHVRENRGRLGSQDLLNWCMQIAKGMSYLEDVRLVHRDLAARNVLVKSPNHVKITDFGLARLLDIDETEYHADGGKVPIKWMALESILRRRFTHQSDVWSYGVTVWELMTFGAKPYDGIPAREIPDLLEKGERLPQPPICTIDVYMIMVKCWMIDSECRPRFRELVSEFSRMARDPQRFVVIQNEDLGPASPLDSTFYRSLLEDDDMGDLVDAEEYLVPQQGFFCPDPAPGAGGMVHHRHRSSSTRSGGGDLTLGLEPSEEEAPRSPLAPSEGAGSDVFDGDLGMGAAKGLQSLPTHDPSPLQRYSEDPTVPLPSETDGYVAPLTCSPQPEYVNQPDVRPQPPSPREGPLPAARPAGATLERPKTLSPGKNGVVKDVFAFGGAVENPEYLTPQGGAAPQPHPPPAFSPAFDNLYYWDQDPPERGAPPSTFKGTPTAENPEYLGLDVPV
T1 sequence (P35968 20-1356): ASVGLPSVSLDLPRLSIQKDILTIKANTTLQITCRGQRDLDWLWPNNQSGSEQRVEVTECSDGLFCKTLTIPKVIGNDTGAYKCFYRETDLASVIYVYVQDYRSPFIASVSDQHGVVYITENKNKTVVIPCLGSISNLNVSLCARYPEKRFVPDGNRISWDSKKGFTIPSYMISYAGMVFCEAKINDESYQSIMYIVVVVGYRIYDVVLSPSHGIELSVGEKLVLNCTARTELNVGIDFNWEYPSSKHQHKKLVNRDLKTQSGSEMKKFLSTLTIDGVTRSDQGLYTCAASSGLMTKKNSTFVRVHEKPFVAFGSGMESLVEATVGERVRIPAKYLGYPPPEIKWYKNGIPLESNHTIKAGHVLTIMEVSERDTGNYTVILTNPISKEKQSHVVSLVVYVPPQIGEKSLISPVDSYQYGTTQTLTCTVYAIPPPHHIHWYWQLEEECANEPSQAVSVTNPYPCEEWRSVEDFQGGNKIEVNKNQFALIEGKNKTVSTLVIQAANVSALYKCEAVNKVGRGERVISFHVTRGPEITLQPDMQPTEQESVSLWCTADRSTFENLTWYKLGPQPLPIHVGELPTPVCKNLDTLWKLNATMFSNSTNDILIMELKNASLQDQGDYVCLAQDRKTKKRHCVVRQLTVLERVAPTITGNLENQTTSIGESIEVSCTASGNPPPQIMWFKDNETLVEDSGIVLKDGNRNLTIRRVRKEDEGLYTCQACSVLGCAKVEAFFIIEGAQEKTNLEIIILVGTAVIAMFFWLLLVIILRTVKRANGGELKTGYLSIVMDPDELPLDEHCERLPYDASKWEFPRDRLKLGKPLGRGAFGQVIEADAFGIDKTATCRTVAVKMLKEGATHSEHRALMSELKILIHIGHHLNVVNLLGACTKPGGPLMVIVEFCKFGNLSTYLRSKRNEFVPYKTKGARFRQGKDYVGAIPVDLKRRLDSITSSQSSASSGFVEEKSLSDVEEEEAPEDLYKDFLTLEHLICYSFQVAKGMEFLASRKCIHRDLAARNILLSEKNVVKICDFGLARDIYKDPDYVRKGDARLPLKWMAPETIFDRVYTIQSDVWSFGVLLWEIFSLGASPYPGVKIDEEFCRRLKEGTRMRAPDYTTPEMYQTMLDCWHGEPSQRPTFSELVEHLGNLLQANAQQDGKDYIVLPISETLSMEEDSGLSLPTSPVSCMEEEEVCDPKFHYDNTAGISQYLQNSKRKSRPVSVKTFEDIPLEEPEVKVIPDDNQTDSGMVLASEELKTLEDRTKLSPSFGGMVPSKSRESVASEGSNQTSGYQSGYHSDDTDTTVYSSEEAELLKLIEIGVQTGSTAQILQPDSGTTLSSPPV

| SMILES | melting point [°C] | IC50 [3] [µM] | IC50 [6] [µM] | also measured |
| --- | --- | --- | --- | --- |
| N#Cc1c(-c2ccccc2)c(C#N)c(=O)n(-c2cccc(C(F)(F)F)c2)c1N [Compound 5a] | 280 to 282 | 2.71 ± 0.15 | 1.77 ± 0.1 | VEGFR-2 (pg/mL) expression level [1]: 884.30 pg/mL and 884.30 ± 29.3 pg/mL; IC50 [2]: 0.217 ± 0.02 µM; HER-2 (pg/mL) expression level [4]: 299.50 pg/mL and 299.50 ± 4.7 pg/mL; IC50 [5]: 0.168 ± 0.009 µM |
| N#Cc1c(-c2ccc(O)cc2)c(C#N)c(=O)n(-c2cccc(C(F)(F)F)c2)c1N [Compound 5b] | 330 to 332 | 11.4 ± 0.61 | 24.7 ± 1.33 | – |
| N#Cc1c(-c2ccc([N+](=O)[O-])cc2)c(C#N)c(=O)n(-c2cccc(C(F)(F)F)c2)c1N [Compound 5c] | 229 to 230 | 4.01 ± 0.22 | 20.2 ± 1.09 | – |
| N#Cc1c(-c2ccc(Cl)cc2)c(C#N)c(=O)n(-c2cccc(C(F)(F)F)c2)c1N [Compound 5d] | 324 to 326 | 22.5 ± 1.22 | 13.7 ± 0.74 | – |
| N#Cc1c(-c2ccc(Cl)cc2Cl)c(C#N)c(=O)n(-c2cccc(C(F)(F)F)c2)c1N [Compound 5e] | 239 to 241 | 10.7 ± 0.58 | 1.39 ± 0.08 | VEGFR-2 (pg/mL) expression level [1]: 510.00 pg/mL and 510.00 ± 20.2 pg/mL; IC50 [2]: 0.124 ± 0.011 µM; HER-2 (pg/mL) expression level [4]: 148.60 pg/mL and 148.60 ± 5.5 pg/mL; IC50 [5]: 0.077 ± 0.003 µM |
| COc1cc(-c2c(C#N)c(N)n(-c3cccc(C(F)(F)F)c3)c(=O)c2C#N)cc(OC)c1OC [Compound 5f] | 195 to 197 | 40.6 ± 2.19 | 54.2 ± 2.93 | – |
| N#Cc1c(-c2ccc(O)cc2)c2c(=O)[nH]cnc2n(-c2cccc(C(F)(F)F)c2)c1=O [Compound 6a] | 300 to 302 | 7.27 ± 0.39 | – | – |
| N#Cc1c(-c2ccc(Cl)cc2)c2c(=O)[nH]cnc2n(-c2cccc(C(F)(F)F)c2)c1=O [Compound 6b] | 350 to 352 | 2.68 ± 0.14 | 14 ± 0.76 | – |
| CCC(=O)COc1nc(-c2cc(Cl)ccc2Cl)cc(-c2ccc(F)cc2)c1C#N [III] | – | – | – | IC50 cell growth inhibition, SF-268 [7]: 0.02 mg/L (≈ 0.0466 µM); IC50 cell growth inhibition, NCI-H460 [8]: 0.01 mg/L (≈ 0.0233 µM); IC50 cell growth inhibition, MCF-7 [9]: 0.02 mg/L (≈ 0.0466 µM) |
| CC(=O)O[C@H]1C(=O)[C@@]2(C)[C@H]([C@H](OC(=O)c3ccccc3)[C@]3(O)C[C@H](OC(=O)[C@H](O)[C@@H](NC(=O)c4ccccc4)c4ccccc4)C(C)=C1C3(C)C)[C@]1(OC(C)=O)CO[C@@H]1C[C@@H]2O [Taxol, paclitaxel, reference compound] | – | 14.6 ± 0.79 | 8.48 ± 0.46 | VEGFR-2 (pg/mL) expression level [1]: 660.10 ± 31.4 pg/mL; HER-2 (pg/mL) expression level [4]: 199.10 ± 8.6 pg/mL |
| COC(=O)NCC#Cc1ccc2ncnc(Nc3ccc(Oc4cccc(C)n4)c(C)c3)c2c1 [V] | – | – | – | anti-HER-2 activity [10]: lower than 42 nM |

More lines, main results first:

| melting point [°C] | SMILES | IC50 [3] [µM] | IC50 [6] [µM] | also measured |
| --- | --- | --- | --- | --- |
| 308 to 310 | Cc1nc2c(c(-c3ccccc3)c(C#N)c(=O)n2-c2cccc(C(F)(F)F)c2)c(=O)[nH]1 [Compound 7a] | 16.3 ± 0.88 | 10.7 ± 0.58 | – |
| 330 to 332 | Cc1nc2c(c(-c3ccc(Cl)cc3)c(C#N)c(=O)n2-c2cccc(C(F)(F)F)c2)c(=O)[nH]1 [Compound 7b] | 19.6 ± 1.06 | 6.22 ± 0.34 | – |
| 333 to 335 | Cc1nc2c(c(-c3ccc(Cl)cc3Cl)c(C#N)c(=O)n2-c2cccc(C(F)(F)F)c2)c(=O)[nH]1 [Compound 7c] | 5.04 ± 0.27 | 9.28 ± 0.5 | – |
| 320 to 322 | CC(=O)Oc1ccc(-c2c(C#N)c(=O)n(-c3cccc(C(F)(F)F)c3)c3nc(C)[nH]c(=O)c23)cc1 [Compound 7d] | 52.5 ± 2.84 | 43.4 ± 2.35 | – |
| 150 to 152 | COc1cc(-c2c(C#N)c(=O)n(-c3cccc(C(F)(F)F)c3)c3nc(C)[nH]c(=O)c23)cc(OC)c1OC [Compound 7e] | 71.9 ± 3.88 | 27.8 ± 1.5 | – |
